The values below come from article PMC4155405 (Nature communications, 2014).

One data set has as its system Wuhan95 virus. The class given is cell-based.
Another data set has as its system Jurkat cells. The settings on record: cited from earlier work.
In the next data set the test system is MDCK cells. The settings on record: cited from earlier work.

With `Nc1nc2c(ncn2[C@@H]2O[C@H](CO)[C@@H](O)[C@H]2O)c(=O)[nH]1` [guanosine], the “reversal of ribavirin inhibition of Wuhan95 replication by guanosine” value in the data set on Wuhan95 virus is on record as “can restore Wuhan95 replication”. Also, in the data set with Jurkat cells, the “ATP relative to un-treated control cells” value is listed as 40% and the “GTP relative to un-treated control cells” value is on record as 600%.
On to `NC(=O)c1nc(F)c[nH]c1=O` [favipiravir], for which the “cytotoxicity in MDCK cells” value with MDCK cells is listed as “No cytotoxicity”.
